Results as given in PMC9763021, “Comprehensive Assessment of Biomolecular Interactions of Morpholine-Based Mixed Ligand Cu(II) and Zn(II) Complexes of 2,2′-Bipyridine as Potential Anticancer and SARS-CoV-2 Agents: A Synergistic Experimental and Structure-Based Virtual Screening” (Bioinorganic Chemistry and Applications, 2022).

Experiments:
[1] = test system: HepG2 liver cancer cell line; assay: MTT cell viability assay, HepG2; assay type: cell-based, human
Protocol: (§1) All substances towards the A549, HepG2, MCF-7, and NHDF cell lines were evaluated by using the MTT approach. The collected data were utilized to compute the IC50 value and contrast it with the gold standard cisplatin anticancer medication.
(§2) Cellular viability or metabolic properties can be measured using the MTT assay, which is a powerful and credible method for anticancer properties. The anticancer efficacy of all test compounds was investigated by the MTT assay against A549, HepG2, MCF-7, and NHDF cell lines. As per the colorimetric approach, the IC50 findings of all test substances were evaluated as the % of cell viability/growth inhibition. […] Nevertheless, complex (1a) has the highest cytotoxic potential among others. The acquired findings were in the subsequent sequence as follows: (cisplatin) > (1a) > (2a) > (HL) (Figure 16 and Table 10). The cytotoxic effectiveness is dependent upon the DNA-binding modalities, the structure-activity relationship, as well as drug concentrations and incubation period exposure. […] As per Tweedy's chelation theory, charge equilibration happens as a result of coordination between the ligands and metal ions, which minimises the polarity of the metal ions and causes the capability of the test complexes to pass via the cell membrane lipid layer. Thus, it put off the synthesis of cell wall/protein/nucleic acids. Additionally, the results of DNA-binding tests using these complexes, including gel electrophoresis, UV-visible spectral titration, hydrodynamic, emission, and CV findings, were in good agreement with the findings of cytotoxicity. The expressions (46) and (47) were supported to measure the % of growth inhibition and cell viability. […]
(§3) A549, HepG2 MCF-7, and NHDF are represented as human lung cancer cell line, liver cancer cell line, breast cancer cell line, and normal human dermal fibroblasts cell line.(45) % Cytotoxiciy=1− Mean absorbance of Sample at 595 nm/Mean absorbance of Controlat 595 nm ×100, (46) Cellviability%=100−Cytotoxiciy%.

[2] = test system: MCF-7 breast cancer cell line; assay: MTT cell viability assay, MCF-7; assay type: cell-based, human
Protocol: as §1, §2, §3

[3] = test system: A549 human lung cancer cell line; assay: MTT cell viability assay, A549; assay type: cell-based
Protocol: as §1, §2, §3

[4] = test system: NHDF normal human dermal fibroblasts cell line; assay: MTT cell viability assay, NHDF; assay type: cell-based; details: 72 hours exposure, normal cells
Protocol: as §1, §2, §3

Row | SMILES | IC50 ([1]; 72 hours exposure) | IC50 ([2]; 72 hours exposure) | IC50 ([3]; 72 hours exposure) | IC50 [4] | IC50 ([1]; Homo sapiens, HepG2, 72 hours exposure) | IC50 ([2]; Homo sapiens, MCF7, 72 hours exposure) | IC50 ([3]; Homo sapiens, A549, 72 hours exposure) | IC50 ([4]; Homo sapiens, NHDF)
1 | [Cu+2].[O-]c1ccccc1N=Cc1ccc(N2CCOCC2)cc1.[O-]c1ccccc1N=Cc1ccc(N2CCOCC2)cc1.c1ccc(-c2ccccn2)nc1 [(1a), [Cu(L)2(bpy)]] | 33.1 ± 1.7 µM | 32.1 ± 1.6 µM | 30.8 ± 1.5 µM | 73.6 ± 3.7 µM | – | – | – | –
2 | Oc1ccccc1N=Cc1ccc(N2CCOCC2)cc1 [(HL), 2-(4-morpholinobenzylideneamino)phenol] | – | – | – | – | 108 ± 5.4 µM | 105 ± 5.3 µM | 126 ± 6.3 µM | 209 ± 10.4 µM
